{"source": "patent US12281225B2", "about": "“Process for preparing stable polymers containing vinylimidazole” (BASF SE, priority 2018, dated 2025)", "key": {"[1]": {"test": "Analysis of active substance: preservative concentration before and after storage in VI-containing polymer solution", "assay_type": "physicochemical", "details": "for active-substance concentration, 0 d, RT: before storage; for active-substance concentration, 14 d, 40° C.: storage 14 d at 40° C.; for active-substance concentration, 28 d, 40° C.: storage 28 d at 40° C.; for active-substance concentration, 60 d 40° C.: storage 60 d at 40° C.", "how_it_was_run": "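Preservatives (MIT, BIT, CMIT, OIT, DCOIT, iodopropynyl butyl carbamate) in aqueous vinylpyrrolidone–vinylimidazole copolymer solution quantified after dilution by isocratic RP18 chromatography with UV detection, using an acid-methanol eluent.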"}, "[2]": {"test": "Iodine color number according to DIN 6162:2014-09", "assay_type": "physicochemical"}, "[3]": {"tested_on": "Bacteria: Escherichia coli, Staphylococcus aureus, Pseudomonas aeruginosa, Pseudomonas putida, Burkholderia cepacia, Alcaligenes faecalis", "test": "Preservation test with periodic inoculation, bacteria assessment", "assay_type": "cell-based", "details": "for Start sample measurement, bact. assess., 4th inoculation: freshly formulated; for 60 d 40° C., bact. assess., 4th inoculation: sample stored 60 d at 40° C.", "how_it_was_run": "(§1)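 Semiquantitative growth scores (−− no growth to ++ strong growth) from weekly agar streaks incubated 3 days at 25 °C. Preserved polymer samples got four weekly 0.5 ml inoculations (titer 10^9 organisms/ml), the first two days after preservative addition; testing began fresh and after 60-day storage at 40 °C.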"}, "[4]": {"tested_on": "Yeast: Candida albicans, Candida valida, Rhodotorula rura, Saccharomyces cerevisiae", "test": "Preservation test with periodic inoculation, yeast assessment", "assay_type": "cell-based", "details": "for Start sample measurement, yeast assess., 4th inoculation: freshly formulated; for 60 d 40° C., yeast assess., 4th inoculation: sample stored 60 d at 40° C.", "how_it_was_run": "as §1"}, "[5]": {"details": "Polymer P5 (HP56) with stabilizer"}}, "data": [{"molecule": "CCCCNC(=O)OCC#CI", "note": "[Iodopropynyl butyl carbamate, iodopropynyl butyl carbamate]", "values": [{"measurement": "active-substance concentration, 0 d, RT", "setting": "[1]; in Polymer P1", "result": 250, "unit": "ppm"}, {"measurement": "active-substance concentration, 14 d, 40° C.", "setting": "[1]; in Polymer P1", "result": 206, "unit": "ppm"}, {"measurement": "active-substance concentration, 28 d, 40° C.", "setting": "[1]; in Polymer P1", "result": 176, "unit": "ppm"}, {"measurement": "active-substance concentration, 60 d 40° C.", "setting": "[1]; in Polymer P1", "result": 84, "unit": "ppm"}, {"measurement": "active-substance concentration, 0 d, RT", "setting": "[1]; in Polymer P2", "result": 250, "unit": "ppm"}, {"measurement": "active-substance concentration, 14 d, 40° C.", "setting": "[1]; in Polymer P2", "result": 225, "unit": "ppm"}, {"measurement": "active-substance concentration, 28 d, 40° C.", "setting": "[1]; in Polymer P2", "result": 183, "unit": "ppm"}, {"measurement": "active-substance concentration, 60 d 40° C.", "setting": "[1]; in Polymer P2", "result": 122, "unit": "ppm"}, {"measurement": "active-substance concentration, 0 d, RT", "setting": "[1]; in Polymer P3", "result": 250, "unit": "ppm"}, {"measurement": "active-substance concentration, 14 d, 40° C.", "setting": "[1]; in Polymer P3", "result": 221, "unit": "ppm"}, {"measurement": "active-substance concentration, 28 d, 40° C.", "setting": "[1]; in Polymer P3", "result": 190, "unit": "ppm"}, {"measurement": "active-substance concentration, 60 d 40° C.", "setting": "[1]; in Polymer P3", "result": 107, "unit": "ppm"}, {"measurement": "active-substance concentration, 0 d, RT", "setting": "[1]; in Polymer P4", "result": 250, "unit": "ppm"}, {"measurement": "active-substance concentration, 14 d, 40° C.", "setting": "[1]; in Polymer P4", "result": 212, "unit": "ppm"}, {"measurement": "active-substance concentration, 28 d, 40° C.", "setting": "[1]; in Polymer P4", "result": 188, "unit": "ppm"}, {"measurement": "active-substance concentration, 60 d 40° C.", "setting": "[1]; in Polymer P4", "result": 101, "unit": "ppm"}, {"measurement": "active-substance concentration, 0 d, RT", "setting": "[1]; in Polymer P5 (HP56)", "result": 250, "unit": "ppm"}, {"measurement": "active-substance concentration, 14 d, 40° C.", "setting": "[1]; in Polymer P5 (HP56)", "result": 206, "unit": "ppm"}, {"measurement": "active-substance concentration, 28 d, 40° C.", "setting": "[1]; in Polymer P5 (HP56)", "result": 176, "unit": "ppm"}, {"measurement": "active-substance concentration, 60 d 40° C.", "setting": "[1]; in Polymer P5 (HP56)", "result": 84, "unit": "ppm"}, {"measurement": "active-substance concentration, 0 d, RT", "setting": "[1]; in Polymer P6", "result": 250, "unit": "ppm"}, {"measurement": "active-substance concentration, 14 d, 40° C.", "setting": "[1]; in Polymer P6", "result": 201, "unit": "ppm"}, {"measurement": "active-substance concentration, 28 d, 40° C.", "setting": "[1]; in Polymer P6", "result": 174, "unit": "ppm"}, {"measurement": "active-substance concentration, 60 d 40° C.", "setting": "[1]; in Polymer P6", "result": 80, "unit": "ppm"}, {"measurement": "active-substance concentration, 0 d, RT", "setting": "[1]; in Polymer P7", "result": 250, "unit": "ppm"}, {"measurement": "active-substance concentration, 14 d, 40° C.", "setting": "[1]; in Polymer P7", "result": 207, "unit": "ppm"}, {"measurement": "active-substance concentration, 28 d, 40° C.", "setting": "[1]; in Polymer P7", "result": 178, "unit": "ppm"}, {"measurement": "active-substance concentration, 60 d 40° C.", "setting": "[1]; in Polymer P7", "result": 87, "unit": "ppm"}, {"measurement": "active-substance concentration, 0 d, RT", "setting": "[1]; in Polymer P8", "result": 250, "unit": "ppm"}, {"measurement": "active-substance concentration, 14 d, 40° C.", "setting": "[1]; in Polymer P8", "result": 206, "unit": "ppm"}, {"measurement": "active-substance concentration, 28 d, 40° C.", "setting": "[1]; in Polymer P8", "result": 176, "unit": "ppm"}, {"measurement": "active-substance concentration, 60 d 40° C.", "setting": "[1]; in Polymer P8", "result": 84, "unit": "ppm"}, {"measurement": "active-substance concentration, 0 d, RT", "setting": "[1]; in Polymer P9", "result": 250, "unit": "ppm"}, {"measurement": "active-substance concentration, 14 d, 40° C.", "setting": "[1]; in Polymer P9", "result": 191, "unit": "ppm"}, {"measurement": "active-substance concentration, 28 d, 40° C.", "setting": "[1]; in Polymer P9", "result": 160, "unit": "ppm"}, {"measurement": "active-substance concentration, 60 d 40° C.", "setting": "[1]; in Polymer P9", "result": 78, "unit": "ppm"}, {"measurement": "Iodine color number, 60 d 40° C.", "setting": "[2]; Polymer P1 with stabilizer", "result": 7.5}, {"measurement": "Iodine color number, start", "setting": "[2]; Polymer P1 with stabilizer", "result": 2.8}, {"measurement": "Iodine color number, 60 d 40° C.", "setting": "[2]; Polymer P2 with stabilizer", "result": 8.0}, {"measurement": "Iodine color number, start", "setting": "[2]; Polymer P2 with stabilizer", "result": 2.8}, {"measurement": "Iodine color number, 60 d 40° C.", "setting": "[2]; Polymer P3 with stabilizer", "result": 10.4}, {"measurement": "Iodine color number, start", "setting": "[2]; Polymer P3 with stabilizer", "result": 3.4}, {"measurement": "Iodine color number, 60 d 40° C.", "setting": "[2]; Polymer P4 with stabilizer", "result": 10.0}, {"measurement": "Iodine color number, start", "setting": "[2]; Polymer P4 with stabilizer", "result": 3.4}, {"measurement": "Iodine color number, 60 d 40° C.", "setting": "[2]; [5]", "result": 11.7}, {"measurement": "Iodine color number, start", "setting": "[2]; [5]", "result": 3.4}, {"measurement": "Iodine color number, 60 d 40° C.", "setting": "[2]; Polymer P6 with stabilizer", "result": 11.0}, {"measurement": "Iodine color number, start", "setting": "[2]; Polymer P6 with stabilizer", "result": 3.4}, {"measurement": "Iodine color number, 60 d 40° C.", "setting": "[2]; Polymer P7 with stabilizer", "result": 11.0}, {"measurement": "Iodine color number, start", "setting": "[2]; Polymer P7 with stabilizer", "result": 3.4}, {"measurement": "Iodine color number, 60 d 40° C.", "setting": "[2]; Polymer P8 with stabilizer", "result": 11.4}, {"measurement": "Iodine color number, start", "setting": "[2]; Polymer P8 with stabilizer", "result": 3.4}, {"measurement": "Iodine color number, 60 d 40° C.", "setting": "[2]; Polymer P9 with stabilizer", "result": 16.9}, {"measurement": "Iodine color number, start", "setting": "[2]; Polymer P9 with stabilizer", "result": 3.9}, {"measurement": "Start sample measurement, bact. assess., 4th inoculation", "setting": "[3]; Polymer P1", "result": "− (slight growth, max. 100 colonies)"}, {"measurement": "60 d 40° C., bact. assess., 4th inoculation", "setting": "[3]; Polymer P1", "result": "0 (moderate growth, max. 400 colonies)"}, {"measurement": "Start sample measurement, bact. assess., 4th inoculation", "setting": "[3]; Polymer P2", "result": "− (slight growth, max. 100 colonies)"}, {"measurement": "60 d 40° C., bact. assess., 4th inoculation", "setting": "[3]; Polymer P2", "result": "+"}, {"measurement": "Start sample measurement, bact. assess., 4th inoculation", "setting": "[3]; Polymer P3", "result": "− (slight growth, max. 100 colonies)"}, {"measurement": "60 d 40° C., bact. assess., 4th inoculation", "setting": "[3]; Polymer P3", "result": "+"}, {"measurement": "60 d 40° C., bact. assess., 4th inoculation", "setting": "[3]; Polymer P4", "result": "0 (moderate growth, max. 400 colonies)"}, {"measurement": "Start sample measurement, bact. assess., 4th inoculation", "setting": "[3]; Polymer P5 (HP56)", "result": "− (slight growth, max. 100 colonies)"}, {"measurement": "60 d 40° C., bact. assess., 4th inoculation", "setting": "[3]; Polymer P5 (HP56)", "result": "+"}, {"measurement": "60 d 40° C., bact. assess., 4th inoculation", "setting": "[3]; Polymer P6", "result": "+"}, {"measurement": "60 d 40° C., bact. assess., 4th inoculation", "setting": "[3]; Polymer P7", "result": "+"}, {"measurement": "Start sample measurement, bact. assess., 4th inoculation", "setting": "[3]; Polymer P8", "result": "− (slight growth, max. 100 colonies)"}, {"measurement": "60 d 40° C., bact. assess., 4th inoculation", "setting": "[3]; Polymer P8", "result": "+"}, {"measurement": "60 d 40° C., bact. assess., 4th inoculation", "setting": "[3]; Polymer P9", "result": "+"}, {"measurement": "Start sample measurement, yeast assess., 4th inoculation", "setting": "[4]; Polymer P1", "result": "− (slight growth, max. 100 colonies)"}, {"measurement": "60 d 40° C., yeast assess., 4th inoculation", "setting": "[4]; Polymer P1", "result": "+ +"}, {"measurement": "Start sample measurement, yeast assess., 4th inoculation", "setting": "[4]; Polymer P2", "result": "− (slight growth, max. 100 colonies)"}, {"measurement": "60 d 40° C., yeast assess., 4th inoculation", "setting": "[4]; Polymer P2", "result": "+"}, {"measurement": "Start sample measurement, yeast assess., 4th inoculation", "setting": "[4]; Polymer P3", "result": "− (slight growth, max. 100 colonies)"}, {"measurement": "60 d 40° C., yeast assess., 4th inoculation", "setting": "[4]; Polymer P3", "result": "+"}, {"measurement": "Start sample measurement, yeast assess., 4th inoculation", "setting": "[4]; Polymer P4", "result": "− (slight growth, max. 100 colonies)"}, {"measurement": "60 d 40° C., yeast assess., 4th inoculation", "setting": "[4]; Polymer P4", "result": "++"}, {"measurement": "Start sample measurement, yeast assess., 4th inoculation", "setting": "[4]; Polymer P5 (HP56)", "result": "− (slight growth, max. 100 colonies)"}, {"measurement": "60 d 40° C., yeast assess., 4th inoculation", "setting": "[4]; Polymer P5 (HP56)", "result": "+"}, {"measurement": "Start sample measurement, yeast assess., 4th inoculation", "setting": "[4]; Polymer P6", "result": "− (slight growth, max. 100 colonies)"}, {"measurement": "60 d 40° C., yeast assess., 4th inoculation", "setting": "[4]; Polymer P6", "result": "+"}, {"measurement": "Start sample measurement, yeast assess., 4th inoculation", "setting": "[4]; Polymer P7", "result": "− (slight growth, max. 100 colonies)"}, {"measurement": "60 d 40° C., yeast assess., 4th inoculation", "setting": "[4]; Polymer P7", "result": "+"}, {"measurement": "Start sample measurement, yeast assess., 4th inoculation", "setting": "[4]; Polymer P8", "result": "− (slight growth, max. 100 colonies)"}, {"measurement": "60 d 40° C., yeast assess., 4th inoculation", "setting": "[4]; Polymer P8", "result": "+"}, {"measurement": "Start sample measurement, yeast assess., 4th inoculation", "setting": "[4]; Polymer P9", "result": "− (slight growth, max. 100 colonies)"}, {"measurement": "60 d 40° C., yeast assess., 4th inoculation", "setting": "[4]; Polymer P9", "result": "+"}]}]}
